# Read-outs that look alike come from different tables or passages of the source.
# Legend:
# Test in all cases: cell-based
# Format in all cases: cell-based
# hNav1.4 = hNav1.4 (Homo sapiens, UniProt P35499); conditions: Table 12; for IC50: PatchXpress, tonic block, read-out: PX hNav1.4 Tonic IC50; for Nav1.4/Nav1.7: ratio of PX tonic IC50 values
# hNav1.7 = hNav1.7 (Homo sapiens, UniProt Q15858); conditions: PatchXpress, read-out: PX hNav1.7 Tonic IC50
# hNav1.6 = hNav1.6 (Homo sapiens, UniProt Q9UQD0); conditions: Table 15; for Nav1.6/Nav1.7: ratio of PX tonic IC50 values; for IC50: read-out: PX hNav1.6 Tonic IC50
# hNav1.6, sequence (Q9UQD0 whole entry): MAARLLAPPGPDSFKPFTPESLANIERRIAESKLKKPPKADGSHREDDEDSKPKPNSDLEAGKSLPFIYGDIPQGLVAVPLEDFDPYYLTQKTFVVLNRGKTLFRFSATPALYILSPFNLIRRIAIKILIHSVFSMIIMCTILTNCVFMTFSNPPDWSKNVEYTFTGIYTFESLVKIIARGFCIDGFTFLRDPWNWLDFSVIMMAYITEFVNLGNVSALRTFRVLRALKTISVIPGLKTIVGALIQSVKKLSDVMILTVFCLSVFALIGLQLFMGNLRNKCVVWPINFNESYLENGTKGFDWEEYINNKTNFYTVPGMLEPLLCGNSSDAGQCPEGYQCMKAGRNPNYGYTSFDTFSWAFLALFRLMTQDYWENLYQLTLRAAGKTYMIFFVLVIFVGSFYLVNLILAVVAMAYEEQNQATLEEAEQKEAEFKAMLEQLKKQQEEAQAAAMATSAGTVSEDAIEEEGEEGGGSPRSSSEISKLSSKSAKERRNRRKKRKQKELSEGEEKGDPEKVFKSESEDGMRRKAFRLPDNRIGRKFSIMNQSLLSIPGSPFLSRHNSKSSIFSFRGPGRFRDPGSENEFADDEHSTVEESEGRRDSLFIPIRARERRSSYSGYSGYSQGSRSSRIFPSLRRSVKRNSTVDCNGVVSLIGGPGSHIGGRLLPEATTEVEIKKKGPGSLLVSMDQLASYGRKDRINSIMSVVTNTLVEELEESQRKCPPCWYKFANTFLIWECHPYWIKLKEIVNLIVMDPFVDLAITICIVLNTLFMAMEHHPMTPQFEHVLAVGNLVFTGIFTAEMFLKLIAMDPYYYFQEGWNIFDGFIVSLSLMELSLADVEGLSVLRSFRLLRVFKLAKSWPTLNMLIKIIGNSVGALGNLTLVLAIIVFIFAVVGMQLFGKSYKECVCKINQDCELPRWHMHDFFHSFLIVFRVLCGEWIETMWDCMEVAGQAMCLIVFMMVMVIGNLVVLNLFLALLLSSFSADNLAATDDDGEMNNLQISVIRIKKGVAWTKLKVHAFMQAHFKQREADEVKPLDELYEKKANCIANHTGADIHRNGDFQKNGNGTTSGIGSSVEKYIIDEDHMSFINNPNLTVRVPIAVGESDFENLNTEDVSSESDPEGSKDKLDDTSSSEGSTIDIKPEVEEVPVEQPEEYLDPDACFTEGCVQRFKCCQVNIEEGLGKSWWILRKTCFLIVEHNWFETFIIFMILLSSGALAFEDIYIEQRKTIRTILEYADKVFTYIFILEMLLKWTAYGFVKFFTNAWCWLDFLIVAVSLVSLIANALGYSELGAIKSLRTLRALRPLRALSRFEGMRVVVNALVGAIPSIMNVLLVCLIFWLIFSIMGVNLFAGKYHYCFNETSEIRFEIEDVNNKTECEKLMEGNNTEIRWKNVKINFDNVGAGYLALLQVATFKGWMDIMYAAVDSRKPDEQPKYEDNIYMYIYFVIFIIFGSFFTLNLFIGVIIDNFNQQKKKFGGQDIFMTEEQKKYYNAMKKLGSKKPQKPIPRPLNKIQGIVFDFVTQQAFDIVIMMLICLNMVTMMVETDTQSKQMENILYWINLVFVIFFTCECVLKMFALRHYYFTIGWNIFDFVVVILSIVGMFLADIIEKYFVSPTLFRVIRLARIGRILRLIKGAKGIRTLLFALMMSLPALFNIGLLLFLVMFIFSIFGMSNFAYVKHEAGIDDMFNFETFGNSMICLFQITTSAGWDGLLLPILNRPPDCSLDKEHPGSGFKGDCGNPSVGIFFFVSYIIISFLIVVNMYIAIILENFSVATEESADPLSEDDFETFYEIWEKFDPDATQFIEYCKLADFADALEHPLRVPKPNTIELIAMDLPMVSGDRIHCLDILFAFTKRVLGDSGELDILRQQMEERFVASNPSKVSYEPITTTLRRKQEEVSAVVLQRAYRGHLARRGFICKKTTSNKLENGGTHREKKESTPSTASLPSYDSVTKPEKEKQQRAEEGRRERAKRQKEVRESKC
# hNav1.7, sequence (Q15858 whole entry): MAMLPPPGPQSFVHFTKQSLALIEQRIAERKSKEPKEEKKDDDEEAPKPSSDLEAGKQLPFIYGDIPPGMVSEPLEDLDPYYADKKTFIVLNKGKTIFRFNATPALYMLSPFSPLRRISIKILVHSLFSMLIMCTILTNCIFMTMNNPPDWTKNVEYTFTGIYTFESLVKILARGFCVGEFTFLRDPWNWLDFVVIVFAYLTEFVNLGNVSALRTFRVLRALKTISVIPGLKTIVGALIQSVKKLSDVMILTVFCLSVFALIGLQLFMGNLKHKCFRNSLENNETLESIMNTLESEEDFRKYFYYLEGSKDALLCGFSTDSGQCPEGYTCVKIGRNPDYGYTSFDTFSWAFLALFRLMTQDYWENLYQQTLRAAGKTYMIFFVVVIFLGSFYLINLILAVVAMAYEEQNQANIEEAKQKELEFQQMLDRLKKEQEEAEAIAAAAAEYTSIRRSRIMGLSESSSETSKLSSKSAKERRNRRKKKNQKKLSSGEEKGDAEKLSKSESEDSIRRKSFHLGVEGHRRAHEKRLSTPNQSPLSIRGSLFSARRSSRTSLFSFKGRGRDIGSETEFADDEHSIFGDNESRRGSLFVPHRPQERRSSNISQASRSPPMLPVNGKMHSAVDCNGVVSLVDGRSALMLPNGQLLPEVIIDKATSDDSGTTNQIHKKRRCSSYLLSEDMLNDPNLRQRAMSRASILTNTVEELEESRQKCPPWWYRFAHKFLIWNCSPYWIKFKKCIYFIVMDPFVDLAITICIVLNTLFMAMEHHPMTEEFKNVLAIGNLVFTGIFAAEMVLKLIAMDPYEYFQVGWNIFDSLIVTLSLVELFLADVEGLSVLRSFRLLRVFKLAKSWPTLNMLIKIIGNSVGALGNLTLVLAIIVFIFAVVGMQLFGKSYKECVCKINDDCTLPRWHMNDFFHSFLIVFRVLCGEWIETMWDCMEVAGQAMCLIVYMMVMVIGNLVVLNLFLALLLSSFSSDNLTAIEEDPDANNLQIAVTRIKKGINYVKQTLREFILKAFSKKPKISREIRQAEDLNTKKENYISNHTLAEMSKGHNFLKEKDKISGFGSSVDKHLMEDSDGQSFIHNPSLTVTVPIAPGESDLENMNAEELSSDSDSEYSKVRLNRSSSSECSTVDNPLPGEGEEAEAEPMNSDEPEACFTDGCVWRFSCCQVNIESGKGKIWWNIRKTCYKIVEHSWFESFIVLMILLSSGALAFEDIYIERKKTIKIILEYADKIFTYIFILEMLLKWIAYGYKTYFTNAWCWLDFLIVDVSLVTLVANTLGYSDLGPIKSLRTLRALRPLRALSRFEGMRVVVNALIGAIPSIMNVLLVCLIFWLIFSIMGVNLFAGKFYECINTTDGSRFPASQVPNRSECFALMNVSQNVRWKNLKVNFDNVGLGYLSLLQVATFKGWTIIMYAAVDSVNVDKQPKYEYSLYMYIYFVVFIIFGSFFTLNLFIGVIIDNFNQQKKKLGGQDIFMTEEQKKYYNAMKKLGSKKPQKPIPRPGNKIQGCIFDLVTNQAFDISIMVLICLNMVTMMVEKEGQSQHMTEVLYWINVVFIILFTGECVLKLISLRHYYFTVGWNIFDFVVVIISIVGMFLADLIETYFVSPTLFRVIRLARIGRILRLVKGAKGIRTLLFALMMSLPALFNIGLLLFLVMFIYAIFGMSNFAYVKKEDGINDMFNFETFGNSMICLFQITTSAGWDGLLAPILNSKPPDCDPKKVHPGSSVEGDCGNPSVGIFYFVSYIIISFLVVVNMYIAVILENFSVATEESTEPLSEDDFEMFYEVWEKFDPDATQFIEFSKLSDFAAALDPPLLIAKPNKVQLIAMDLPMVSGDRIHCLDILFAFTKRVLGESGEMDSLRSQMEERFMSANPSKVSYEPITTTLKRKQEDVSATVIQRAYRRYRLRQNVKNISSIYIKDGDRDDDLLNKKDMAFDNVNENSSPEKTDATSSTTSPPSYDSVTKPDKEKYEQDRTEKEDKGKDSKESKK
Structure (SMILES),IC50 (hNav1.4),Nav1.4/Nav1.7 (hNav1.4),"IC50 (hNav1.7; Table 12, tonic block)",Nav1.6/Nav1.7 (hNav1.6),IC50 (hNav1.6),"IC50 (hNav1.7; tonic, Table 11)"
C#CC[C@H](N)C(=O)N[C@@H](CCC(=O)O)C(=O)N[C@H]1CSSC[C@@H]2NC(=O)[C@@H]3CSSC[C@@H](C(=O)N[C@@H](CCCNC(=N)N)C(=O)N[C@@H](CCCCN)C(=O)N[C@@H](CCC(=O)O)C(=O)N[C@H](C(N)=O)[C@@H](C)CC)NC(=O)[C@H](Cc4c[nH]c5ccccc45)NC(=O)[C@H](CC(C)C)NC(=O)[C@H](CCCCN)NC(=O)[C@H](CSSC[C@H](NC(=O)[C@H]([C@@H](C)O)NC(=O)[C@H](Cc4c[nH]c5ccccc45)NC(=O)[C@H](CCCC)NC(=O)[C@H](Cc4c[nH]c5ccccc45)NC(=O)[C@H](CCCCN)NC(=O)[C@H](CCC(N)=O)NC1=O)C(=O)N[C@@H](CC(=O)O)C(=O)N[C@@H](CO)C(=O)N[C@@H](CCCCN)C(=O)N[C@@H](CCCNC(=N)N)C(=O)N[C@@H](CCC(=O)O)C(=O)N3)NC(=O)[C@H](CCCNC(=N)N)NC(=O)[C@H](CC(C)C)NC(=O)CNC(=O)[C@H](CCC(=O)O)NC2=O [compound 743],670 nM,494,1.36 nM,1727,2340 nM,
C#CC[C@H](NC(=O)[C@@H](N)CCC(=O)O)C(=O)N[C@@H](Cc1ccc(O)cc1)C(=O)N[C@H]1CSSC[C@@H]2NC(=O)[C@@H]3CSSC[C@@H](C(=O)N[C@@H](CCCNC(=N)N)C(=O)N[C@@H](CCCCN)C(=O)N[C@@H](CCC(=O)O)C(=O)N[C@H](C(N)=O)[C@@H](C)CC)NC(=O)[C@H](Cc4c[nH]c5ccccc45)NC(=O)[C@H](CC(C)C)NC(=O)[C@H](CCCCN)NC(=O)[C@H](CSSC[C@H](NC(=O)[C@H]([C@@H](C)O)NC(=O)[C@H](Cc4c[nH]c5ccccc45)NC(=O)[C@H](CCCC)NC(=O)[C@H](Cc4c[nH]c5ccccc45)NC(=O)[C@H](CCCCN)NC(=O)[C@H](CCC(N)=O)NC1=O)C(=O)N[C@@H](CC(=O)O)C(=O)N[C@@H](CCC(=O)O)C(=O)N[C@@H](CCCCN)C(=O)N[C@@H](CCCNC(=N)N)C(=O)N[C@@H](C)C(=O)N3)NC(=O)[C@H](CCCNC(=N)N)NC(=O)[C@H](CC(C)C)NC(=O)CNC(=O)[C@H](CCC(=O)O)NC2=O [compound 734],1050 nM,452,2.33 nM,1233,2870 nM,
C#CC[C@H](N)C(=O)N[C@@H](Cc1ccc(O)cc1)C(=O)N[C@H]1CSSC[C@@H]2NC(=O)[C@@H]3CSSC[C@@H](C(=O)N[C@@H](CCCNC(=N)N)C(=O)N[C@@H](CCCCN)C(=O)N[C@@H](CCC(=O)O)C(=O)N[C@H](C(N)=O)[C@@H](C)CC)NC(=O)[C@H](Cc4c[nH]c5ccccc45)NC(=O)[C@H](CC(C)C)NC(=O)[C@H](CCCCN)NC(=O)[C@H](CSSC[C@H](NC(=O)[C@H](CCC(=O)O)NC(=O)[C@H](Cc4c[nH]c5ccccc45)NC(=O)[C@H](CCCC)NC(=O)[C@H](Cc4c[nH]c5ccccc45)NC(=O)[C@H](CCCCN)NC(=O)[C@H](CCC(N)=O)NC1=O)C(=O)N[C@@H](CC(=O)O)C(=O)N[C@@H](CO)C(=O)N[C@@H](CCCCN)C(=O)N[C@@H](CCCNC(=N)N)C(=O)N[C@@H](C)C(=O)N3)NC(=O)[C@H](CCCNC(=N)N)NC(=O)[C@H](CC(C)C)NC(=O)CNC(=O)[C@H](CCC(=O)O)NC2=O [compound 712],1580 nM,97,16.4 nM,395,6460 nM,
C#CC[C@H](NC(=O)[C@@H](N)CCC(=O)O)C(=O)N[C@@H](Cc1ccc(O)cc1)C(=O)N[C@H]1CSSC[C@@H]2NC(=O)[C@@H]3CSSC[C@@H](C(=O)N[C@@H](CCCNC(=N)N)C(=O)N[C@@H](CCCCN)C(=O)N[C@@H](CCC(=O)O)C(=O)N[C@H](C(N)=O)[C@@H](C)CC)NC(=O)[C@H](Cc4c[nH]c5ccccc45)NC(=O)[C@H](CC(C)C)NC(=O)[C@H](CCCCN)NC(=O)[C@H](CSSC[C@H](NC(=O)[C@H]([C@@H](C)O)NC(=O)[C@H](Cc4c[nH]c5ccccc45)NC(=O)[C@H](CCCC)NC(=O)[C@H](Cc4c[nH]c5ccccc45)NC(=O)[C@H](CCCCN)NC(=O)[C@H](CCC(N)=O)NC1=O)C(=O)N[C@@H](CC(=O)O)C(=O)N[C@@H](CO)C(=O)N[C@@H](CCCCN)C(=O)N[C@@H](CCCNC(=N)N)C(=O)N[C@@H](C)C(=O)N3)NC(=O)[C@H](CCCNC(=N)N)NC(=O)[C@H](CC(C)C)NC(=O)CNC(=O)[C@H](CCC(=O)O)NC2=O [compound 707],112 nM,152,0.738 nM,236,174 nM,
C#CC[C@H](N)C(=O)N[C@@H](Cc1ccc(O)cc1)C(=O)N[C@H]1CSSC[C@@H]2NC(=O)[C@@H]3CSSC[C@@H](C(=O)N[C@@H](CCCNC(=N)N)C(=O)N[C@@H](CCCCN)C(=O)N[C@@H](CCC(=O)O)C(=O)N[C@H](C(N)=O)[C@@H](C)CC)NC(=O)[C@H](Cc4c[nH]c5ccccc45)NC(=O)[C@H](CC(C)C)NC(=O)[C@H](CCC(=O)O)NC(=O)[C@H](CSSC[C@H](NC(=O)[C@H]([C@@H](C)O)NC(=O)[C@H](Cc4c[nH]c5ccccc45)NC(=O)[C@H](CCCC)NC(=O)[C@H](Cc4c[nH]c5ccccc45)NC(=O)[C@H](CCCCN)NC(=O)[C@H](CCC(N)=O)NC1=O)C(=O)N[C@@H](CC(=O)O)C(=O)N[C@@H](CO)C(=O)N[C@@H](CCCCN)C(=O)N[C@@H](CCCNC(=N)N)C(=O)N[C@@H](C)C(=O)N3)NC(=O)[C@H](CCCNC(=N)N)NC(=O)[C@H](CC(C)C)NC(=O)CNC(=O)[C@H](CCC(=O)O)NC2=O [compound 722],,>442,,>442,,
CC[C@H](C)[C@H](NC(=O)[C@@H](NC(=O)[C@H](CCCCN)NC(=O)[C@H](CCCNC(=N)N)NC(=O)[C@@H]1CSSC[C@@H]2NC(=O)[C@H](C)NC(=O)[C@H](CCCNC(=N)N)NC(=O)[C@H](CCCCN)NC(=O)[C@H](CO)NC(=O)[C@H](CC(=O)O)NC(=O)[C@@H]3CSSC[C@H](NC(=O)[C@H](CCCNC(=N)N)NC(=O)[C@H](CC(C)C)NC(=O)CNC(=O)[C@H](CCC(=O)O)NC(=O)[C@H](CSSC[C@H](NC(=O)[C@@H](N)Cc4ccc(O)cc4)C(=O)N[C@@H](CCC(N)=O)C(=O)N[C@@H](CCC(=O)O)C(=O)N[C@@H](Cc4c[nH]c5ccccc45)C(=O)N[C@@H](CCSC)C(=O)N[C@@H](Cc4c[nH]c5ccccc45)C(=O)N[C@@H]([C@@H](C)O)C(=O)N3)NC2=O)C(=O)N[C@@H](CCCCN)C(=O)N[C@@H](CC(C)C)C(=O)N[C@@H](Cc2c[nH]c3ccccc23)C(=O)N1)[C@@H](C)CC)C(N)=O [compound 51],,,,>12,> 10000 nM,847 nM
C#CC[C@H](N)C(=O)N[C@@H](Cc1ccc(O)cc1)C(=O)N[C@H]1CSSC[C@@H]2NC(=O)[C@@H]3CSSC[C@@H](C(=O)N[C@@H](CCCNC(=N)N)C(=O)N[C@@H](CCCCN)C(=O)N[C@@H](CCC(=O)O)C(=O)N[C@H](C(N)=O)[C@@H](C)CC)NC(=O)[C@H](Cc4c[nH]c5ccccc45)NC(=O)[C@H](CC(C)C)NC(=O)[C@H](CCCCN)NC(=O)[C@H](CSSC[C@H](NC(=O)[C@H]([C@@H](C)O)NC(=O)[C@H](Cc4c[nH]c5ccccc45)NC(=O)[C@H](CCCC)NC(=O)[C@H](Cc4c[nH]c5ccccc45)NC(=O)[C@H](CCCCN)NC(=O)[C@H](CCC(N)=O)NC1=O)C(=O)N[C@@H](CC(=O)O)C(=O)N[C@@H](CO)C(=O)N[C@@H](CCCCN)C(=O)N[C@@H](CCCNC(=N)N)C(=O)N[C@@H](C)C(=O)N3)NC(=O)[C@H](C)NC(=O)[C@H](CC(C)C)NC(=O)CNC(=O)[C@H](CCC(=O)O)NC2=O [compound 727],,,905 nM,>11,> 10000 nM,

# From US10344060B2 (priority 2013, dated 2019)
